Structures can show the parent of a compound that is named as a salt. Where two headings read alike, the source gives them in different places.
Key:
MIA PaCa-2 cells = experiment: MIA PaCa-2 CTG Assay (CellTiter-Glo cell viability); assay type: cell-based, human; details: Mia PaCa-2, 72 h, second value of the cell, read-out: G12D/C/V Cell Proliferation CTG (72 h) Mia PaCa-2
Description: MIA PaCa-2 CTG Assay Protocol
MIA PaCa-2 (human pancreatic carcinoma; ATCC CRL-1420) cells were cultured in RPMI 1640 medium containing 10% fetal bovine serum and 1× penicillin/streptomycin/L-glutamine. Cells were seeded in 384-well plates at a density of 1.67E+04 cells/mL and incubated at 37° C., 5% CO2, overnight. Serially-diluted compound or DMSO was added to the cells, and plates were incubated at 37° C., 5% CO2 for 72 h. Cell viability was measured using a CellTiter-Glo® Luminescent Cell Viability Assay kit (Promega) according to the manufacturer's protocol. The luminescence signal of treated samples was normalized to DMSO control, and data were analyzed using a 4-parameter logistic model to calculate IC50 values.

[1] = target: GDP-bound KRAS protein (aa 1-169), containing both G12D and C118A amino acid substitutions (Homo sapiens (Human), UniProt P01116, C118A/G12D); experiment: KRAS G12D Coupled Nucleotide Exchange Assay; assay type: biochemical; details: read-out: KRAS G12D Coupled Exchange IC50
[2] = test system: Phosphorylation of ERK1/2 in AsPC-1 cells; experiment: Phospho-ERK1/2 MSD Assay; assay type: cell-based, human; details: read-out: 2 h p-ERK (AsPC-1 cells), IC50
In short: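 Read-out: MSD electrochemiluminescent detection of phosphorylated ERK1/2 in whole-cell lysates, fitted to a 4-parameter logistic curve for IC50. Prior to lysis, AsPC-1 cells (25,000 per well) received a 2 h compound dose-response at 37 °C.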

[3] = target: His-tagged KRAS G12D protein (Homo sapiens (Human), UniProt P01116, G12D); experiment: KRAS G12D TR-FRET Assay; assay type: binding; details: read-out: KRAS G12D Binding IC50
In short: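 Each incubation ran at room temperature: enzyme with compound for 30 minutes, peptide for one hour, and detection reagents (0.4 nM europium anti-6×His, 5 nM streptavidin-d2) for one hour more. Protein and peptide stocks were each diluted to 20 nM before addition.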

AsPC-1 cells = experiment: AsPC-1 CTG Assay (CellTiter-Glo cell viability); assay type: cell-based, human; details: AsPC-1, 72 h, first value of the cell, read-out: G12D/C/V Cell Proliferation CTG (72 h) AsPC-1
In short: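 IC50 values derive from 4-parameter logistic fits of CellTiter-Glo luminescence, expressed relative to DMSO. Compound dilution series were applied to overnight-seeded AsPC-1 or SW620 cells (RPMI 1640, 10% FBS) for 72 h at 37 °C, 5% CO2.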

Chain of GDP-bound KRAS protein (aa 1-169), containing both G12D and C118A amino acid substitutions (P01116 other isoform, or with tags, fused parts or gaps G12D/C118A): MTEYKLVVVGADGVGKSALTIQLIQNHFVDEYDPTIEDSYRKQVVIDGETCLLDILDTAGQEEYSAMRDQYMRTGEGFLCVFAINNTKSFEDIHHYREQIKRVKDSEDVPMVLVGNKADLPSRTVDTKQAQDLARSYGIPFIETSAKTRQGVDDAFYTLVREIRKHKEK
Chain of His-tagged KRAS G12D protein (P01116 other isoform, or with tags, fused parts or gaps G12D): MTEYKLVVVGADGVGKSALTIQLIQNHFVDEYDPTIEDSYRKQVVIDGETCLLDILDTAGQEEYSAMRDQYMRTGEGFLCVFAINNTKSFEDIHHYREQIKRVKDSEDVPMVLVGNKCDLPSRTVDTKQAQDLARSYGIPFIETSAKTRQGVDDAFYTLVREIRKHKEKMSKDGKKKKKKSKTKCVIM

SMILES	IC50 (MIA PaCa-2 cells; Homo sapiens) [nM]	IC50 [1] [nM]	IC50 ([2]; Homo sapiens, ASPC1, 2 h) [nM]	IC50 [3] [nM]	IC50 (AsPC-1 cells; Homo sapiens, ASPC1, 72 h) [nM]	IC50 (MIA PaCa-2 cells) [nM]	IC50 ([2]; 2 h) [nM]	IC50 (AsPC-1 cells) [nM]
C[C@@]12CCN(C1)c1nc(OC[C@@]34CCCN3C[C@H](F)C4)nc3c(F)c(ncc13)-c1cc(O)cc3ccc(F)c(c13)CCCC(=O)N2 [Example 10, (14R)-21,30-Difluoro-8-(((2R,7aS)-2-fluorotetrahydro-1H-pyrrolo[1,2-a]pyrrol-7a(5H)-yl)methoxy)-26-hydroxy-14-methyl-3,7,9,11,15-pentaazahexacyclo[18.7.1.1˜2,6˜.1˜11,14˜.0˜5,10˜.0˜24,28˜]triaconta-1(27),2(30),3,5,7,9,20,22,24(28),25-decaen-16-one 2,2,2-trifluoroacetate salt]	157	2	84	4	574			
CN(C)CC1(COc2nc3c4cnc(c(F)c4n2)-c2cc(O)cc4ccc(F)c(c24)CCCC(=O)N[C@]2(C)CCCN3C2)CC1 [Example 22, (15R)-8-((1-((Dimethylamino)methyl)cyclopropyl)methoxy)-22,31-difluoro-27-hydroxy-15-methyl-3,7,9,11,16-pentaazahexacyclo[19.7.1.1˜2,6˜.1˜11,15˜.0˜5,10˜.0˜25,29˜]hentriaconta-1(28),2(31),3,5,7,9,21,23,25(29),26-decaen-17-one bis(2,2,2-trifluoroacetate)]	10	1	5	3	108			
C[C@@]12CCCN(C1)c1nc(OC[C@@]34CCCN3C[C@H](F)C4)nc3c(F)c(ncc13)-c1cc(O)cc3ccc(F)c(c13)CCCCC(=O)N2 [Example 47, (15R)-23,32-Difluoro-8-(((2R,7aS)-2-fluorotetrahydro-1H-pyrrolo[1,2-a]pyrrol-7a(5H)-yl)methoxy)-28-hydroxy-15-methyl-3,7,9,11,16-pentaazahexacyclo[20.7.1.1˜2,6˜.1˜11,15˜.0˜5,10˜.0˜26,30˜]dotriaconta-1(30),2(32),3,5,7,9,22,24,26,28-decaen-17-one]	200	2	36	4	350			
O=C1CCCc2c(F)ccc3cccc(c23)-c2ncc3c(nc(OC[C@@]45CCCN4C[C@H](F)C5)nc3c2F)N2CC[C@H]3CCN1[C@H]3C2 [Example 72, (27S,31R)-18,33-difluoro-4-(((2R,7aS)-2-fluorotetrahydro-1H-pyrrolo[1,2-a]pyrrol-7a(5H)-yl)methoxy)-1,3,5,9,24-pentaazaheptacyclo[22.5.2.1˜6,10˜.1˜11,15˜.0˜2,7˜.0˜19,32˜.0˜27,31˜]tritriaconta-2,4,6,8,10(33),11,13,15(32),16,18-decaen-23-one]	200	1	16	3	230			
O=C1CCCCc2c(Cl)cc3[nH]ncc3c2-c2ncc3c(nc(OC[C@@]45CCCN4C[C@H](F)C5)nc3c2F)N2CCCC[C@H](C2)O1 [Example 82, (26R)-18-chloro-32-fluoro-4-(((2R,7aS)-2-fluorotetrahydro-1H-pyrrolo[1,2-a]pyrrol-7a(5H)-yl)methoxy)-25-oxa-1,3,5,9,14,15-hexaazahexacyclo[24.4.1.1~6,10~.0~2,7~.0~11,19~.0~12,16~]dotriaconta-2,4,6,8,10(32),11,13,16,18-nonaen-24-one]	10	1	2	2	40			
Cc1cc2[nH]ncc2c2c1CCCCC(=O)O[C@@H]1COCCN(C1)c1nc(OC[C@@]34CCCN3C[C@H](F)C4)nc3c(F)c-2ncc13 [Example 83, (26S)-32-fluoro-4-(((2R,7aS)-2-fluorotetrahydro-1H-pyrrolo[1,2-a]pyrrol-7a(5H)-yl)methoxy)-18-methyl-25,28-dioxa-1,3,5,9,14,15-hexaazahexacyclo[24.4.1.1~6,10~.0~2,7~.0~11,19~.0~12,16~]dotriaconta-2,4,6,8,10(32),11,13,16,18-nonaen-24-one]	40	3	15	4	160			
O=C1CCCCc2c(Cl)cc3[nH]ncc3c2-c2ncc3c(nc(OC[C@@]45CCCN4C[C@H](F)C5)nc3c2F)N2CCOC[C@H](C2)O1 [Example 84, (26S)-18-chloro-32-fluoro-4-(((2R,7aS)-2-fluorotetrahydro-1H-pyrrolo[1,2-a]pyrrol-7a(5H)-yl)methoxy)-25,28-dioxa-1,3,5,9,14,15-hexaazahexacyclo[24.4.1.1~6,10~.0~2,7~.0~11,19~.0~12,16~]dotriaconta-2,4,6,8,10(32),11,13,16,18-nonaen-24-one]	20	1	4	2	50			
CN1C[C@H](F)C[C@H]1COc1nc2c3cnc(c(F)c3n1)-c1c(c(Cl)cc3[nH]ncc13)CCCCC(=O)O[C@@H]1CCCCN2C1 [Example 85, (26R)-18-chloro-32-fluoro-4-(((2S,4R)-4-fluoro-1-methyl-2-pyrrolidinyl)methoxy)-25-oxa-1,3,5,9,14,15-hexaazahexacyclo[24.4.1.1~6,10~.0~2,7~.0~11,19~.0~12,16~]dotriaconta-2,4,6,8,10(32),11,13,16,18-nonaen-24-one]	400	4	58	5	480			
Cc1cc2[nH]ncc2c2c1CCCOC(=O)O[C@@H]1CCCCN(C1)c1nc(OC[C@@]34CCCN3C[C@H](F)C4)nc3c(F)c-2ncc13 [Example 98, (26R)-32-fluoro-4-(((2R,7aS)-2-fluorotetrahydro-1H-pyrrolo[1,2-a]pyrrol-7a(5H)-yl)methoxy)-18-methyl-23,25-dioxa-1,3,5,9,14,15-hexaazahexacyclo[24.4.1.1~6,10~.0~2,7~.0~11,19~.0~12,16~]dotriaconta-2,4,6,8,10(32),11,13,16,18-nonaen-24-one]	50	2	17	4	140			
Cc1cc2[nH]ncc2c2c1CCCC(=O)OCC1CCCN(C1)c1nc(OC[C@@]34CCCN3C[C@H](F)C4)nc3c(F)c-2ncc13 (some centres unmarked) [Example 104]	300	2	38	7	860			
Cc1cc2[nH]ncc2c2c1CCOC(=O)OC[C@@H]1CCCN(C1)c1nc(OC[C@@]34CCCN3C[C@H](F)C4)nc3c(F)c-2ncc13 [Example 126, (17R)-30-Fluoro-24-(((2R,7aS)-2-fluorotetrahydro-1H-pyrrolo[1,2-a]pyrrol-7a(5H)-yl)methoxy)-9-methyl-13,15-dioxa-5,6,21,23,25,29-hexaazahexacyclo[24.3.1.1˜17,21˜.0˜2,10˜.0˜3,7˜.0˜22,27˜]hentriaconta-1(30),2,4,7,9,22,24,26,28-nonaen-14-one bis(2,2,2-trifluoroacetate)]	60	1	10	2	160			
O=C1CC[C@@H]2C[C@@H]2c2c(Cl)cc3[nH]ncc3c2-c2ncc3c(nc(OC[C@@]45CCCN4C[C@H](F)C5)nc3c2F)N2CCC[C@H](C2)O1 [Example 127]		3		4		120	13	230
Cc1cc2[nH]ncc2c2c1C/C=C\COC[C@@H]1CCCN(C1)c1nc(OC[C@@]34CCCN3C[C@H](F)C4)nc3c(F)c-2ncc13 [Example 131]	230	3	41	6	370			

From US20240294551A1 (AMGEN INC., priority 2022, published 2024)
